Data on 31 molecules can be found in patent US20260216294A1, “BETA 2-ADRENERGIC RECEPTOR AGONISTS FOR TREATMENT OR PREVENTION OF MUSCLE WASTING” (ATROGI AB, priority 2023, published 2026).

Molecules are shown by their SMILES.

Test [1] relates to L6-myotubes. As to the kind of experiment: Glucose uptake in differentiated L6-myotubes (Biological Example 2). The following applies: glucose uptake in differentiated L6-myotubes, compound at 10 μM, activity relative to isoproterenol at 10 μM; for Emax at 10 µM: read-out: Biological example 2 (GU). Type of test: cell-based. In outline:
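Uptake was quantified as radioactivity in 0.2 M NaOH lysates after a 10 min pulse of 50 nM ^3H-2-deoxyglucose. The pulse followed two agonist exposures at 1×10^−5 M final (isoprenaline or test compound): 1 h 40 min, then 20 min in glucose-free medium after washing. L6 myotubes had been starved overnight in medium with 0.5% fatty-acid-free BSA.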

Test [2] relates to L6-myotubes. Briefly: Measurement of intracellular cAMP levels in differentiated L6-myotubes (Biological Example 3). Type of test: cell-based. To be noted: intracellular cAMP in differentiated L6-myotubes, compound at 10 μM, activity relative to isoproterenol at 10 μM; for Emax at 10 µM: 0.25 h. In outline:
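Intracellular cAMP quantified by AlphaScreen after ethanol extraction and lysis of L6 myotubes. Cells were serum-starved overnight, then exposed for 15 min to compound (final 1×10^−5 M) or isoprenaline in IBMX-containing (1 mM) HBSS buffer, pH 7.4.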

For the molecule `CS(=O)(=O)N[C@H]1CC[C@@H](C[C@@H]2CC[C@H]([C@H](O)c3cccc(F)c3)N2)CC1` [Compound 510, (R)-[(2R,5S)-5-{[(1s,4R)-4-(mesylamino)cyclohexyl]methyl}-2-pyrrolidinyl](m-fluorophenyl)methanol], the values for the Emax at 10 µM in the test with L6-myotubes [1] and in the test on L6-myotubes [2] were over 75% and under 25%, respectively.
Taken in the same sequence, the figures for `CS(=O)(=O)N[C@H]1CC[C@@H](C[C@@H]2CC[C@H]([C@@H](O)c3cccc(F)c3)N2)CC1` [Compound 511] were 25 to 50% and under 25%.
For `CS(=O)(=O)N(Cc1ccccc1)c1cccc(CC23CCC([C@@H](O)c4cccc(F)c4)(CC2)N3)c1` [Compound 512], the Emax at 10 µM in the test with L6-myotubes [1] and in the test with L6-myotubes [2] was under 25% each time.
In the case of `CS(=O)(=O)N(Cc1ccccc1)c1cccc(CC23CCC([C@H](O)c4cccc(F)c4)(CC2)N3)c1` [Compound 513], the Emax at 10 µM with L6-myotubes [1] is 25 to 50%; in the test on L6-myotubes [2] it was under 25%.
The like results for `CS(=O)(=O)Nc1cccc(CC23CCC([C@@H](O)c4cccc(F)c4)(CC2)N3)c1` [Compound 514, (S)-(m-fluorophenyl)(4-{[m-(mesylamino)phenyl]methyl}-7-azabicyclo[[2.2.1]]hept-1-yl)methanol] were, in that order, 50 to 75% and under 25%.
As to `CS(=O)(=O)Nc1cccc(CC23CCC([C@@H](O)c4cccc(F)c4)(CC2)N3)c1` [Compound 515, (R)-(m-fluorophenyl)(4-{[m-(mesylamino)phenyl]methyl}-7-azabicyclo[[2.2.1]]hept-1-yl)methanol], the “Biological example 2 (GU)” value in the test with L6-myotubes [1] was “++ (if it is between 75 and 50% it is denoted with ++)”. For the same molecule, in the test with L6-myotubes [2], the “Biological example 3 (CAMP)” value is “+ (if it is between 50 and 25% it is denoted with +)”.
As for `CC(C)(C[C@H]1CC[C@H](S(N)(=O)=O)CC1)NC[C@H](O)c1cccc(F)c1` [Compound 516, (1R,4r)-4-{2-[(R)-2-(m-fluorophenyl)-2-hydroxyethylamino]-2-methylpropyl} cyclohexanesulfonamide], the Emax at 10 µM is over 75% with L6-myotubes [1] and under 25% in the test on L6-myotubes [2].
The like results for `CC(C)(C[C@H]1CC[C@@H](S(N)(=O)=O)CC1)NC[C@H](O)c1cccc(F)c1` [Compound 517, (1S,4s)-4-{2-[(R)-2-(m-fluorophenyl)-2-hydroxyethylamino]-2-methylpropyl} cyclohexanesulfonamide] were, in that order, 25 to 50% and under 25%.
Taken in the same sequence, the figures for `CC(C)(C[C@H]1CC[C@H](S(N)(=O)=O)CC1)NC[C@H](O)c1cncc(F)c1` [Compound 518, (1R,4r)-4-{2-[(R)-2-(5-fluoro-3-pyridyl)-2-hydroxyethylamino]-2-methylpropyl} cyclohexanesulfonamide] were 50 to 75% and under 25%.
The like results for `CC(C)(C[C@H]1CC[C@@H](S(N)(=O)=O)CC1)NC[C@H](O)c1cncc(F)c1` [Compound 519, (1S,4s)-4-{2-[(R)-2-(5-fluoro-3-pyridyl)-2-hydroxyethylamino]-2-methylpropyl} cyclohexanesulfonamide] were, in that order, over 75% and under 25%.
For `CN([C@H]1CC[C@@H](CC(C)(C)NC[C@H](O)c2cncc(F)c2)CC1)S(C)(=O)=O` [Compound 520], the values for the Emax at 10 µM with L6-myotubes [1] and in the test with L6-myotubes [2] were 50 to 75% and under 25%, respectively.
Taken in the same sequence, the figures for `CN([C@H]1CC[C@H](CC(C)(C)NC[C@H](O)c2cncc(F)c2)CC1)S(C)(=O)=O` [Compound 521, (R)-2-{1,1-dimethyl-2-[(1r,4R)-4-(N-mesyl-N-methylamino)cyclohexyl]ethylamino}-1-(5-fluoro-3-pyridyl)-1-ethanol] were 50 to 75% and under 25%.
Taken in the same sequence, the figures for `CC(C)(C[C@H]1CC[C@@H](NS(=O)(=O)C(F)(F)F)CC1)NC[C@H](O)c1cncc(F)c1` [Compound 522] were over 75% and under 25%.
For the molecule `CCCS(=O)(=O)N[C@H]1CC[C@@H](CC(C)(C)NC[C@H](O)c2cncc(F)c2)CC1` [Compound 523, (R)-2-{1,1-dimethyl-2-[(1s,4S)-4-(propylsulfonylamino)cyclohexyl]ethylamino}-1-(5-fluoro-3-pyridyl)-1-ethanol], the Emax at 10 µM was 50 to 75% with L6-myotubes [1] and under 25% with L6-myotubes [2].
The like results for `CCS(=O)(=O)N[C@H]1CC[C@@H](CC(C)(C)NC[C@H](O)c2cncc(F)c2)CC1` [Compound 524] were, in that order, 50 to 75% and under 25%.
The like results for `CCS(=O)(=O)N[C@H]1CC[C@H](CC(C)(C)NC[C@H](O)c2cncc(F)c2)CC1` [Compound 525, (R)-2-{1,1-dimethyl-2-[(1r,4R)-4-(ethylsulfonylamino)cyclohexyl]ethylamino}-1-(5-fluoro-3-pyridyl)-1-ethanol] were, in that order, 50 to 75% and under 25%.
Taken in the same sequence, the figures for `CC(C)CS(=O)(=O)N[C@H]1CC[C@H](CC(C)(C)NC[C@H](O)c2cncc(F)c2)CC1` [Compound 526] were 50 to 75% and under 25%.
`O[C@@H](c1cccc(F)c1)C12CCC(CCc3ccc(Cl)cc3)(CC1)N2` [Compound 527, (S)-{4-[2-(p-chlorophenyl)ethyl]-7-azabicyclo[[2.2.1]]hept-1-yl}(m-fluorophenyl)methanol]: the Emax at 10 µM in the test with L6-myotubes [1] and with L6-myotubes [2] was under 25% each time.
On to `O[C@H](c1cccc(F)c1)C12CCC(CCc3ccc(Cl)cc3)(CC1)N2` [Compound 528, (R)-{4-[2-(p-chlorophenyl)ethyl]-7-azabicyclo[[2.2.1]]hept-1-yl}(m-fluorophenyl)methanol], for which the Emax at 10 µM in the test with L6-myotubes [1] and in the test on L6-myotubes [2] was under 25% in each case.
As for `O[C@@H](c1cncc(F)c1)C12CCC(C/C=C/c3ccccc3)(CC1)N2` [Compound 529, (S)-{4-[(E)-3-phenyl-2-propenyl]-7-azabicyclo[[2.2.1]]hept-1-yl}(5-fluoro-3-pyridyl)methanol], the figures for the Emax at 10 µM with L6-myotubes [1] and in the test on L6-myotubes [2] were 25 to 50% and under 25%, respectively.
Taken in the same sequence, the figures for `O[C@H](c1cncc(F)c1)C12CCC(C/C=C/c3ccccc3)(CC1)N2` [Compound 530, (R)-{4-[(E)-3-phenyl-2-propenyl]-7-azabicyclo[[2.2.1]]hept-1-yl}(5-fluoro-3-pyridyl)methanol] were over 75% and 25 to 50%.
The like results for `O[C@@H](c1cncc(F)c1)C12CCC(CCCc3ccccc3)(CC1)N2` [Compound 531, (S)-(5-fluoro-3-pyridyl){4-(3-phenylpropyl)-7-azabicyclo[[2.2.1]]hept-1-yl}methanol] were, in that order, 50 to 75% and under 25%.
The like results for `O[C@H](c1cncc(F)c1)C12CCC(CCCc3ccccc3)(CC1)N2` [Compound 532, (R)-(5-fluoro-3-pyridyl){4-(3-phenylpropyl)-7-azabicyclo[[2.2.1]]hept-1-yl}methanol] were, in that order, 50 to 75% and 25 to 50%.
As for `O[C@@H](c1cccc(F)c1)C12CCC(C/C=C/c3ccccc3)(CC1)N2` [Compound 533, (S)-{4-[(E)-3-phenyl-2-propenyl]-7-azabicyclo[[2.2.1]]hept-1-yl}(m-fluorophenyl)methanol], the Emax at 10 µM in the test with L6-myotubes [1] and with L6-myotubes [2] was under 25% each time.
As to `O[C@H](c1cccc(F)c1)C12CCC(C/C=C/c3ccccc3)(CC1)N2` [Compound 534], the Emax at 10 µM in the test with L6-myotubes [1] is over 75%; in the test with L6-myotubes [2] it was under 25%.
With `O[C@@H](c1cccc(F)c1)C12CCC(CCCc3ccccc3)(CC1)N2` [Compound 535, (S)-(m-fluorophenyl){4-(3-phenylpropyl)-7-azabicyclo[[2.2.1]]hept-1-yl}methanol], the values for the Emax at 10 µM with L6-myotubes [1] and with L6-myotubes [2] were 25 to 50% and under 25%, respectively.
The like results for `O[C@H](c1cccc(F)c1)C12CCC(CCCc3ccccc3)(CC1)N2` [Compound 536, (R)-(m-fluorophenyl){4-(3-phenylpropyl)-7-azabicyclo[[2.2.1]]hept-1-yl}methanol] were, in that order, over 75% and 25 to 50%.
Taken in the same sequence, the figures for `CS(=O)(=O)N(Cc1ccccc1)CC12CCC([C@H](O)c3cccc(F)c3)(CC1)N2` [Compound 537, (R)-(4-{[(benzyl)-N-mesylamino]methyl}-7-azabicyclo[[2.2.1]]hept-1-yl)(m-fluorophenyl)methanol] were 50 to 75% and 25 to 50%.
As to `CS(=O)(=O)N(Cc1ccccc1)CC12CCC([C@@H](O)c3cccc(F)c3)(CC1)N2` [Compound 538, (S)-(4-{[(benzyl)-N-mesylamino]methyl}-7-azabicyclo[[2.2.1]]hept-1-yl)(m-fluorophenyl)methanol], the values for the Emax at 10 µM in the test on L6-myotubes [1] and in the test on L6-myotubes [2] were 50 to 75% and under 25%, respectively.
The like results for `COc1ccc(CCC23CCC([C@@H](O)c4cccc(F)c4)(CC2)N3)cc1` [Compound 539, (S)-(m-fluorophenyl){4-[2-(p-methoxyphenyl)ethyl]-7-azabicyclo[[2.2.1]]hept-1-yl}methanol] were, in that order, under 25% and under 25%.
The like results for `COc1ccc(CCC23CCC([C@H](O)c4cccc(F)c4)(CC2)N3)cc1` [Compound 540, (R)-(m-fluorophenyl){4-[2-(p-methoxyphenyl)ethyl]-7-azabicyclo[[2.2.1]]hept-1-yl}methanol] were, in that order, 50 to 75% and 25 to 50%.
